In brackets after ≈: the same amount, converted by molar mass.
Legend:
[1] = test system: C. albicans CAF2-1 strain; assay: Anti-Candida activity, MIC measurement; type: cell-based; conditions: CAF21STRAIN, C. albicans CAF2-1, RPMI1640, 42-48 hours at 35° C., visual inspection, read-out: Anti-Candida Activity (minimum inhibitory concentration, MIC)
Summary of the method: (§1)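 C. albicans CAF2-1 was grown 48 h at 30° C. in SDB and diluted in RPMI1640 to 1.2×10^3 cells/mL. Frozen A. fumigatus Tsukuba was diluted to 4.5×10^3 cells/mL. Compounds, two-fold serially diluted in DMSO from 2.5 mg/mL, were cultured aerobically with fungi for 42-48 h at 35° C.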

[2] = test system: A. fumigatus Tsukuba strain; assay: Anti-Aspergillus activity, MIC measurement; type: cell-based; conditions: RPMI1640, 42-48 hours at 35° C., visual inspection, read-out: Anti-Aspergillus Activity (minimum inhibitory concentration, MIC)
Summary of the method: as §1

SMILES | MIC [1] [µg/mL] | MIC [2] [µg/mL]
Nc1ccc(-c2cc(Cc3ccc(OCc4ccccn4)cc3F)no2)c(N)n1 [Example 158, 3-(3-(2-Fluoro-4-(pyridin-2-ylmethoxy)-benzyl)-isoxazol-5-yl)-pyridin-2,6-diamine] | 1.56 (≈ 3.99 µM) | 3.13 (≈ 8 µM)
Nc1ccc(-c2cc(Cc3ccc(CCc4ccccn4)cc3)no2)c(N)n1 [Example 159, 3-(3-(4-(2-Pyridin-2-yl-ethyl)-benzyl)-isoxazol-5-yl)-pyridin-2,6-diamine] | 0.78 (≈ 2.1 µM) | 3.13 (≈ 8.43 µM)
Nc1ccc(-c2cc(Cc3ccn(Cc4cccc(F)c4)c3)no2)c(N)n1 [Example 160, 3-(3-(1-(3-Fluoro-benzyl)-1H-pyrrol-3-ylmethyl)-isoxazol-5-yl)-pyridin-2,6-diamine] | 0.39 (≈ 1.07 µM) | 0.78 (≈ 2.15 µM)
Nc1ccc(-c2cc(Cc3ccc(Sc4ccccc4)nc3)no2)c(N)n1 [Example 161, 3-(3-(6-Phenylsulfanyl-pyridin-3-ylmethyl)-isoxazol-5-yl)-pyridin-2,6-diamine] | 0.39 (≈ 1.04 µM) | 0.39 (≈ 1.04 µM)
COc1cccc(COc2ccc(Cc3cc(-c4ccc(N)nc4N)on3)cc2)c1 [Example 162, 3-(3-(4-(3-Methoxy-benzyloxy)-benzyl)-isoxazol-5-yl)-pyridin-2,6-diamine] | 0.78 (≈ 1.94 µM) | 0.39 (≈ 0.969 µM)
COc1cccc(COc2ccc(Cc3cc(-c4ccc(N)nc4N)on3)cc2)n1 [Example 163, 3-(3-(4-(6-Methoxy-pyridin-2-ylmethoxy)-benzyl)-isoxazol-5-yl)-pyridin-2,6-diamine] | 3.13 (≈ 7.76 µM) | 1.56 (≈ 3.87 µM)
Nc1ccc(-c2cc(Cc3ccc(Oc4cccnc4)nc3)no2)c(N)n1 [Example 164, 3-(3-(6-(Pyridin-3-yloxy)-pyridin-3-ylmethyl)-isoxazol-5-yl)-pyridin-2,6-diamine] | 6.25 (≈ 17.3 µM) | 6.25 (≈ 17.3 µM)
COCc1ccc(-c2cc(Cc3ccc(Cc4ccc(C)o4)cc3)no2)c(N)n1 [Example 165] | 0.78 (≈ 2 µM) | 1.56 (≈ 4.01 µM)
COCc1ccc(-c2cc(Cc3ccc(Oc4ccccc4)nc3)no2)c(N)n1 [Example 167] | 1.56 (≈ 4.02 µM) | 0.78 (≈ 2.01 µM)
COCc1ccc(-c2cc(Cc3ccc(Cc4ccc(Cl)o4)cc3)no2)c(N)n1 [Example 168, 3-(3-(4-(5-Chloro-furan-2-ylmethyl)-benzyl)-isoxazol-5-yl)-6-methoxymethyl-pyridin-2-ylamine] | 0.78 (≈ 1.9 µM) | 0.78 (≈ 1.9 µM)
Nc1nc(CO)ccc1-c1cc(Cc2ccc(OCc3ccccc3)cc2)no1 [Example 169] | 0.39 (≈ 1.01 µM) | 0.39 (≈ 1.01 µM)
Cc1ccc(-c2cc(Cc3ccc(OCc4ccccc4)cc3)no2)c(N)n1 [Example 170, 3-(3-(4-benzyloxy-benzyl)-isoxazol-5-yl)-6-methyl-pyridin-2-ylamine] | 0.78 (≈ 2.1 µM) | 0.39 (≈ 1.05 µM)
Nc1ncc(Cl)cc1-c1cc(Cc2ccc(COc3ccccn3)cc2)no1 [Example 172] | 6.25 (≈ 15.9 µM) | 12.5 (≈ 31.8 µM)
Nc1ncc(F)cc1-c1cc(Cc2ccc(OCc3ccccc3)cc2)no1 [Example 173, 3-(3-(4-Benzyloxy-benzyl)-isoxazol-5-yl)-5-fluoro-pyridin-2-ylamine] | 1.56 (≈ 4.16 µM) | 0.78 (≈ 2.08 µM)
Nc1ncc(F)cc1-c1cc(Cc2ccc(OCc3ccc(F)cn3)cc2)no1 [Example 174, 5-Fluoro-3-(3-(4-(5-fluoro-pyridin-2-ylmethoxy)-benzyl)-isoxazol-5-yl)pyridin-2-ylamine] | 6.25 (≈ 15.8 µM) | 1.56 (≈ 3.96 µM)
Nc1ncc(F)cc1-c1cc(Cc2ccc(OCc3cc(Cl)ccn3)cc2)no1 [Example 175, 3-(3-(4-(4-Chloro-pyridin-2-ylmethoxy)-benzyl)-isoxazol-5-yl)-5-fluoro-pyridin-2-ylamine] | 0.78 (≈ 1.9 µM) | 1.56 (≈ 3.8 µM)
Nc1ccc(-c2cc(Cc3ccc(OCc4ccccn4)cc3)no2)cn1 [Example 177, 5-(3-(4-(Pyridin-2-ylmethoxy)-benzyl)-isoxazol-5-yl)-pyridin-2-ylamine] | 0.39 (≈ 1.09 µM) | 0.78 (≈ 2.18 µM)
Cc1ccc(Cc2ccc(Cc3cc(-c4ccc(N)nc4)on3)cc2)o1 [Example 178, 5-(3-(4-(5-Methyl-furan-2-ylmethyl)-benzyl)-isoxazol-5-yl)-pyridin-2-ylamine] | 0.39 (≈ 1.13 µM) | 0.2 (≈ 0.579 µM)
Nc1ccc(-c2cc(Cc3ccc(OCc4ccccc4)nc3)no2)cn1 [Example 179, 5-(3-(6-Benzyloxy-pyridin-3-ylmethyl)-isoxazol-5-yl)-pyridin-2-ylamine] | 0.78 (≈ 2.18 µM) | 0.39 (≈ 1.09 µM)
Nc1ccc(-c2cc(Cc3ccc(OCc4ccncc4)cc3)no2)cn1 [Example 180] | 0.39 (≈ 1.09 µM) | 1.56 (≈ 4.35 µM)
Nc1ccc(-c2cc(Cc3ccc(Oc4ccccc4)nc3)no2)cn1 [Example 181, 5-(3-(6-Phenoxy-pyridin-3-ylmethyl)-isoxazol-5-yl)-pyridin-2-ylamine] | 1.56 (≈ 4.53 µM) | 0.39 (≈ 1.13 µM)

SMILES | MIC [1] [µg/mL] | MIC [2] [µg/mL]
Nc1ccc(-c2cc(Cc3ccc(Cc4ccc(Cl)o4)cc3)no2)cn1 [Example 182, 5-(3-(4-(5-Chloro-furan-2-ylmethyl)-benzyl)-isoxazol-5-yl)-pyridin-2-ylamine] | > 25 | 0.2 (≈ 0.547 µM)
Nc1ccc(-c2cc(Cc3ccc(OCc4cc(Cl)ccn4)cc3)no2)cn1 [Example 183, 5-(3-(4-(4-Chloro-pyridin-2-ylmethoxy)-benzyl)-isoxazol-5-yl)-pyridin-2-ylamine] | 0.2 (≈ 0.509 µM) | 0.78 (≈ 1.99 µM)
Nc1ccc(-c2cc(Cc3ccc(OCc4ccc(F)cn4)cc3)no2)cn1 [Example 184, 5-(3-(4-(5-Fluoro-pyridin-2-ylmethoxy)-benzyl)-isoxazol-5-yl)-pyridin-2-ylamine] | > 25 | 0.39 (≈ 1.04 µM)
Nc1ccc(-c2cc(Cc3ccc(Oc4ccccc4F)nc3)no2)cn1 [Example 185, 5-(3-(6-(2-Fluoro-phenoxy)-pyridin-3-ylmethyl)-isoxazol-5-yl)-pyridin-2-ylamine] | 0.78 (≈ 2.15 µM) | 0.78 (≈ 2.15 µM)
Nc1ccc(-c2cc(Cc3ccc(Oc4ccc(F)cc4)nc3)no2)cn1 [Example 186, 5-(3-(6-(4-Fluoro-phenoxy)-pyridin-3-ylmethyl)-isoxazol-5-yl)-pyridin-2-ylamine] | 3.13 (≈ 8.64 µM) | 0.78 (≈ 2.15 µM)
Cc1nc(N)ccc1-c1cc(Cc2ccc(COc3ccccn3)cc2)no1 [Example 187] | 1.56 (≈ 4.19 µM) | 0.78 (≈ 2.09 µM)
Cc1nc(N)ccc1-c1cc(Cc2ccc(OCc3ccccc3)cc2)no1 [Example 188, 5-(3-(4-Benzyloxy-benzyl)-isoxazol-5-yl)-6-methyl-pyridin-2-ylamine] | 1.56 (≈ 4.2 µM) | 0.78 (≈ 2.1 µM)
Nc1ncccc1-c1cc(Cc2ccc(OCc3ccccn3)cc2)on1 [Example 189, 3-(5-(4-(Pyridin-2-ylmethoxy)-benzyl)-isoxazol-3-yl)-pyridin-2-ylamine] | 0.05 (≈ 0.14 µM) | 0.2 (≈ 0.558 µM)
Cc1ccc(-c2cc(Cc3ccc(COc4ccccn4)cc3)no2)cn1 [Example 190, 2-Methyl-5-(3-(4-(pyridin-2-yloxymethyl)-benzyl)-isoxazol-5-yl)-pyridine] | 0.78 (≈ 2.18 µM) | 0.78 (≈ 2.18 µM)
Nc1ncccc1-c1cnn(Cc2ccc(OCc3ccccc3)nc2)c1 [Example 191, 3-(1-(6-Benzyloxy-pyridin-3-ylmethyl)-1H-pyrazol-4-yl)-pyridin-2-ylamine] | 0.2 (≈ 0.56 µM) | 0.39 (≈ 1.09 µM)
Nc1ncccc1-c1cnn(Cc2ccc(Oc3ccccc3)nc2)c1 [Example 193, 3-(1-(6-Phenoxy-pyridin-3-ylmethyl)-1H-pyrazol-4-yl)-pyridin-2-ylamine] | 0.78 (≈ 2.27 µM) | 0.78 (≈ 2.27 µM)
C#CCOCc1ccc(Cn2cc(-c3cccnc3N)cn2)cc1 [Example 194, 3-(1-(4-Prop-2-ynyloxymethyl-benzyl)-1H-pyrazol-4-yl)-pyridin-2-ylamine] | 1.56 (≈ 4.9 µM) | 3.13 (≈ 9.83 µM)
Nc1ncccc1-c1cnn(Cc2ccc(COCC3CC3)cc2)c1 [Example 195, 3-(1-(4-Cyclopropylmethoxymethyl-benzyl)-1H-pyrazol-4-yl)-pyridin-2-ylamine] | 0.39 (≈ 1.17 µM) | 0.78 (≈ 2.33 µM)
CCOCc1ccc(Cn2cc(-c3cccnc3N)cn2)cc1 [Example 196, 3-(1-(4-Ethoxymethyl-benzyl)-1H-pyrazol-4-yl)-pyridin-2-ylamine] | 6.25 (≈ 20.3 µM) | 6.25 (≈ 20.3 µM)
Nc1ncccc1-c1cnn(Cc2ccc(COC3CCC3)cc2)c1 [Example 197, 3-(1-(4-Cyclobutoxymethyl-benzyl)-1H-pyrazol-4-yl)-pyridin-2-ylamine] | 3.13 (≈ 9.36 µM) | 1.56 (≈ 4.66 µM)
Nc1ccc(-c2cnn(Cc3ccc(OCc4ccccc4)nc3)c2)c(N)n1 [Example 198, 3-(1-(6-Benzyloxy-pyridin-3-ylmethyl)-1H-pyrazol-4-yl)-pyridin-2,6-diamine] | 0.78 (≈ 2.09 µM) | 1.56 (≈ 4.19 µM)
Nc1ccc(-c2cnn(Cc3ccc(OCc4ccccn4)cc3)c2)c(N)n1 [Example 199] | 3.13 (≈ 8.4 µM) | 6.25 (≈ 16.8 µM)
Nc1ccc(-c2cnn(Cc3ccc(Oc4ccccc4)nc3)c2)c(N)n1 [Example 200, 3-(1-(6-Phenoxy-pyridin-3-ylmethyl)-1H-pyrazol-4-yl)-pyridin-2,6-diamine] | 3.13 (≈ 8.73 µM) | 3.13 (≈ 8.73 µM)
c1ccc(COc2ccc(Cc3cc(-c4cccnc4)on3)cc2)cc1 [Example 201, 3-(3-(4-Benzyloxy-benzyl)-isoxazol-5-yl)-pyridine] | 0.78 (≈ 2.28 µM) | 0.39 (≈ 1.14 µM)
c1ccc(COc2ccc(Cc3cc(-c4cccnc4)on3)cc2)nc1 [Example 203, 3-(3-(4-(Pyridin-2-ylmethoxy)-benzyl)-isoxazol-5-yl)-pyridine] | 0.2 (≈ 0.582 µM) | 1.56 (≈ 4.54 µM)
Nc1ncccc1-c1cc(Cc2ccc(COc3ccccn3)cc2F)no1 [Example 204, 3-(3-(2-Fluoro-4-(pyridin-2-yloxymethyl)-benzyl)-isoxazol-5-yl)-pyridin-2-ylamine] | 0.2 (≈ 0.531 µM) | 0.39 (≈ 1.04 µM)

From patent US8158657B2, “Heterocycles substituted pyridine derivatives and antifungal agent containing thereof” (Eisai R&D Management Co., Ltd., priority 2005, dated 2012)
